From ChEMBL document CHEMBL5465560, “Selectivity Literature for EUbOPEN Chemogenomic Library” (2024)

What was measured:
[1] = target: Serine/threonine-protein kinase Chk2 (Homo sapiens) (UniProt O96017); experiment: Selectivity interaction (Kinase panel (Z-LYTE Assay)) EUB0001632a CHEK2; settings: at 10 µM
[2] = target: T1, Dual serine/threonine and tyrosine protein kinase (Homo sapiens) (UniProt Q6XUX3); experiment: Selectivity interaction (KinomeScan (DiscoverX)) EUB0000666a DSTYK; settings: at 10 µM
T1 sequence (whole entry): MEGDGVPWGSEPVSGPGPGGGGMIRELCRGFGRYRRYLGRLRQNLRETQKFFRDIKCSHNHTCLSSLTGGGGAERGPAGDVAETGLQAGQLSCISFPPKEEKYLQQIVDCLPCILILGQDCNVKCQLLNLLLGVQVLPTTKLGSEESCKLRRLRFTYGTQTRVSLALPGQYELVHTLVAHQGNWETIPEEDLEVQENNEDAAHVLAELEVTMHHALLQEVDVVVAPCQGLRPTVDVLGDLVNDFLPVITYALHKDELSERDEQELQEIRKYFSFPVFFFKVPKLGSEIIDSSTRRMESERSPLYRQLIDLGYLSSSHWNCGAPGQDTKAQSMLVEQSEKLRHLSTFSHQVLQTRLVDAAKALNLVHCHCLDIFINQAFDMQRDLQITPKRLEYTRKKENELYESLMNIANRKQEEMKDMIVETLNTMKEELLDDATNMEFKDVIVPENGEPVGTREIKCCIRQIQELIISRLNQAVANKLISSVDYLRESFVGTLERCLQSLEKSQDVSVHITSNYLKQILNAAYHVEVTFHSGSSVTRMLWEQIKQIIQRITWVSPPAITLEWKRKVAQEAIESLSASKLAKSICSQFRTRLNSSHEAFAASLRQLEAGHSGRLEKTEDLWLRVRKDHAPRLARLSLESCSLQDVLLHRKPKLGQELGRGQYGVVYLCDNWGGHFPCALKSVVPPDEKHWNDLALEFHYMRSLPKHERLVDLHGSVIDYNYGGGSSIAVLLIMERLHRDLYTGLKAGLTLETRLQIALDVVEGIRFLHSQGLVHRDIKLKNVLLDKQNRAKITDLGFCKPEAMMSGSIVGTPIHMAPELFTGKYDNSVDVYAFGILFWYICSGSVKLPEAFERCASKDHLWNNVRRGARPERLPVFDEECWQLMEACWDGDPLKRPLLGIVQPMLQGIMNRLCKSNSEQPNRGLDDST

[3] = target: T2, Inhibitor of nuclear factor kappa-B kinase subunit epsilon (Homo sapiens) (UniProt Q14164); experiment: Selectivity interaction (ActivX KiNativ screen (kinase selectivity in THP-1 cell lysates)) EUB0000639a IKBKE; assay type: subcellular; settings: lysate
T2 sequence (whole entry): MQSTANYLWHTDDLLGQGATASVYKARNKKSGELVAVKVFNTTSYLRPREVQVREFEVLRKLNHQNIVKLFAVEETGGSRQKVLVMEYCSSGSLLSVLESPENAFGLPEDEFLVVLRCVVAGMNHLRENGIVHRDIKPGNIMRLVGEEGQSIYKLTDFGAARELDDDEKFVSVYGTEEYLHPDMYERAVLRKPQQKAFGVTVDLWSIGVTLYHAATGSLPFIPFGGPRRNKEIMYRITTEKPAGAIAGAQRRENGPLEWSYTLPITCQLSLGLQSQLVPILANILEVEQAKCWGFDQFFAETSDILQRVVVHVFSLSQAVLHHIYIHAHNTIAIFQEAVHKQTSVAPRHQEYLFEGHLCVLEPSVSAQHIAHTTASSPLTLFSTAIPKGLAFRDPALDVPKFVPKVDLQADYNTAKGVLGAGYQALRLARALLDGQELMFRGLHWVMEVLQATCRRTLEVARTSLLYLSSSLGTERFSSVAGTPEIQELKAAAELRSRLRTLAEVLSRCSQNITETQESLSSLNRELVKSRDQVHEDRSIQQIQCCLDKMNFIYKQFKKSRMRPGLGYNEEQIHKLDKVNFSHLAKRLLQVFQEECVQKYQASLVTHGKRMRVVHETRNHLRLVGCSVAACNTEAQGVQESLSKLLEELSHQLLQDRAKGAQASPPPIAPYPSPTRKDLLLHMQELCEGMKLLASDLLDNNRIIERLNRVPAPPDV

[4] = target: Serine/threonine-protein kinase MARK2 (Homo sapiens) (UniProt Q7KZI7); experiment: Selectivity interaction (ActivX KiNativ screen (kinase selectivity in THP-1 cell lysates)) EUB0000639a MARK2; assay type: subcellular; settings: lysate, at 0.01 µM
[5] = target: Cyclin-dependent kinase 4/cyclin D1 (Homo sapiens) (UniProt P11802+P24385); experiment: (§1) Selectivity interaction (ProQinase) EUB0000171b CDK4; assay type: protein-complex assay
[6] = target: CDK4/Cyclin D3 (Homo sapiens) (UniProt P11802+P30281); experiment: as §1; assay type: protein-complex assay
[7] = target: Serine/threonine-protein kinase WNK3 (Homo sapiens) (UniProt Q9BYP7); experiment: Selectivity interaction (KinomeScan (DiscoverX)) EUB0000695a WNK3; settings: at 100 nM
[8] = target: Phosphatidylinositol 4-kinase beta (Homo sapiens, UniProt Q9UBF8); experiment: Selectivity interaction (KinomeScan (DiscoverX)) EUB0001049a PI4KB; settings: at 1 µM
[9] = target: Histone-lysine N-methyltransferase ASH1L (Homo sapiens) (UniProt Q9NR48); settings: at 1 µM
[10] = target: Serine/threonine-protein kinase WNK1 (Homo sapiens) (UniProt Q9H4A3); experiment: Selectivity interaction (Kinase panel (KiNativ target engagement assay in Jurkat cells)) EUB0001635a WNK1; assay type: cell-based; settings: at 1 µM
Sequence of Serine/threonine-protein kinase WNK1 (Homo sapiens) (Q9H4A3 whole entry, looked up): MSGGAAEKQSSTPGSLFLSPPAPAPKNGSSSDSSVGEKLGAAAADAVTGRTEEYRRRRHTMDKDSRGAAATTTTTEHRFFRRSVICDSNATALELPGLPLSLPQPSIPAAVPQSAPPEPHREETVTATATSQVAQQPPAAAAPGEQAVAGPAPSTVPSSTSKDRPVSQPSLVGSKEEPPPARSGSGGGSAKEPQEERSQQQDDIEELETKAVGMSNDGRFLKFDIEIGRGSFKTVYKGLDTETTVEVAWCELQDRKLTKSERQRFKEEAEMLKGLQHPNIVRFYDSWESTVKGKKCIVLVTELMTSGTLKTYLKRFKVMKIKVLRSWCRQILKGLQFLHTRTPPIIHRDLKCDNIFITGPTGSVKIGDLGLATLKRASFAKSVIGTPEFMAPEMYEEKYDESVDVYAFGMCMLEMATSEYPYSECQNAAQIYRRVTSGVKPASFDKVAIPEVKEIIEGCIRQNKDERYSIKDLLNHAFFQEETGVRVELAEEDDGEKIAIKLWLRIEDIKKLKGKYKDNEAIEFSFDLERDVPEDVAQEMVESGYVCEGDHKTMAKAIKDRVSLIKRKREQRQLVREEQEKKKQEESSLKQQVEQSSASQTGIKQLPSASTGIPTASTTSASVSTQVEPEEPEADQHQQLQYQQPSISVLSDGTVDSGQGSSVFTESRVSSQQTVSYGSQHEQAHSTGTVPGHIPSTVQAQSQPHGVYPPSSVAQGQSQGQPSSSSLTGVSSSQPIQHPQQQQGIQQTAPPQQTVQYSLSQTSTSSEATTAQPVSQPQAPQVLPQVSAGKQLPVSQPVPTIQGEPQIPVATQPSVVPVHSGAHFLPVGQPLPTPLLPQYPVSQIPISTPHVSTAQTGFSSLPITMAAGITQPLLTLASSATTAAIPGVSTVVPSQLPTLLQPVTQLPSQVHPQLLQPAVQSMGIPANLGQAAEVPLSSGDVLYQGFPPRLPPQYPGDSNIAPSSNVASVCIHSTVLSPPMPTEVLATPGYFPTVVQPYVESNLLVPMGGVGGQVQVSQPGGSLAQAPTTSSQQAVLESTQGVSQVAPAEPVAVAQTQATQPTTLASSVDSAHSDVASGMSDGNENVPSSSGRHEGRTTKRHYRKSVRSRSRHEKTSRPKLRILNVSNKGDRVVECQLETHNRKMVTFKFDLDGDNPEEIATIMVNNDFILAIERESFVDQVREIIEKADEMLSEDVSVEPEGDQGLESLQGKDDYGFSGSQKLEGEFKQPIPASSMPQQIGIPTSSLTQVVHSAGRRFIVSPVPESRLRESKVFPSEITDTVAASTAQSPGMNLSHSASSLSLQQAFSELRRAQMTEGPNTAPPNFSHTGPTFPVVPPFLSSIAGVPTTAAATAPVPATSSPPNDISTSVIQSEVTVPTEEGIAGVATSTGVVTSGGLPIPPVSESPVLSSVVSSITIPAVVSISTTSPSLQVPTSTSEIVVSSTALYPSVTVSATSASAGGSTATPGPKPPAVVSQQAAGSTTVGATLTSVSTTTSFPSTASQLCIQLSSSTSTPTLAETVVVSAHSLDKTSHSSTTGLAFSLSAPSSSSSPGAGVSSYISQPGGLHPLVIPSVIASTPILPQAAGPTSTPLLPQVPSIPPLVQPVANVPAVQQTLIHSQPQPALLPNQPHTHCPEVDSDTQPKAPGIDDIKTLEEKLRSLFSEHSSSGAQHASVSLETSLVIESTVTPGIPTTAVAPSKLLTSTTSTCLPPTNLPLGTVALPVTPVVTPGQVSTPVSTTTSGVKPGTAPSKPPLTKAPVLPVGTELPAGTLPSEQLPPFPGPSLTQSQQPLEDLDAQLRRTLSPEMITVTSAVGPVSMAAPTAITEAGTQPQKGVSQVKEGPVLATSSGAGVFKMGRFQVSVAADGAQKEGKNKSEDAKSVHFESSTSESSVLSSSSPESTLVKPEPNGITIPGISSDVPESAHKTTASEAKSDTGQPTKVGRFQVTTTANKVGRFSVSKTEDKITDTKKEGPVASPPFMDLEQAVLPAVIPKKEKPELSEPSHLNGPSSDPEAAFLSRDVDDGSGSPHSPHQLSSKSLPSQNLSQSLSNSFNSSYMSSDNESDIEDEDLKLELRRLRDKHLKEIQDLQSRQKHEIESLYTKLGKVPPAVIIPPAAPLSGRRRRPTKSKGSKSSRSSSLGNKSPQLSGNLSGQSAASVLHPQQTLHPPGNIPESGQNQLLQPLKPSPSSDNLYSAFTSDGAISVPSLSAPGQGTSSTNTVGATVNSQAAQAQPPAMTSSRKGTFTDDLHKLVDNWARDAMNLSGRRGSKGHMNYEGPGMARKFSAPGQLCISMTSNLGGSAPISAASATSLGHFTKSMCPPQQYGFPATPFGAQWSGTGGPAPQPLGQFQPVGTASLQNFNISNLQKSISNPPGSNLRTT

[11] = target: Serine/threonine-protein kinase 26 (Homo sapiens, UniProt Q9P289); experiment: Selectivity interaction (KinomeScan (DiscoverX)) EUB0000092b STK26; settings: at 10 µM
[12] = test system: Mast/stem cell growth factor receptor Kit (Homo sapiens), P10721 [D816V]; experiment: (§2) Selectivity interaction (KinomeScan (DiscoverX)) EUB0000618a KIT; settings: at 10 µM
[13] = test system: Mast/stem cell growth factor receptor Kit (Homo sapiens), P10721 [A829P]; experiment: as §2; settings: at 10 µM
[14] = test system: Mast/stem cell growth factor receptor Kit (Homo sapiens), P10721 [L576P]; experiment: as §2; settings: at 10 µM
[15] = target: Serine/threonine-protein kinase SIK3 (Homo sapiens) (UniProt Q9Y2K2); experiment: Selectivity interaction (KinomeScan (DiscoverX)) EUB0000618a SIK3; settings: at 10 µM
[16] = target: Fibroblast growth factor receptor 1 (Homo sapiens, UniProt P11362); experiment: Selectivity interaction (KinomeScan (DiscoverX)) EUB0001619a FGFR1; settings: at 1 µM
Sequence of Fibroblast growth factor receptor 1 (P11362 22-822 limits assumed): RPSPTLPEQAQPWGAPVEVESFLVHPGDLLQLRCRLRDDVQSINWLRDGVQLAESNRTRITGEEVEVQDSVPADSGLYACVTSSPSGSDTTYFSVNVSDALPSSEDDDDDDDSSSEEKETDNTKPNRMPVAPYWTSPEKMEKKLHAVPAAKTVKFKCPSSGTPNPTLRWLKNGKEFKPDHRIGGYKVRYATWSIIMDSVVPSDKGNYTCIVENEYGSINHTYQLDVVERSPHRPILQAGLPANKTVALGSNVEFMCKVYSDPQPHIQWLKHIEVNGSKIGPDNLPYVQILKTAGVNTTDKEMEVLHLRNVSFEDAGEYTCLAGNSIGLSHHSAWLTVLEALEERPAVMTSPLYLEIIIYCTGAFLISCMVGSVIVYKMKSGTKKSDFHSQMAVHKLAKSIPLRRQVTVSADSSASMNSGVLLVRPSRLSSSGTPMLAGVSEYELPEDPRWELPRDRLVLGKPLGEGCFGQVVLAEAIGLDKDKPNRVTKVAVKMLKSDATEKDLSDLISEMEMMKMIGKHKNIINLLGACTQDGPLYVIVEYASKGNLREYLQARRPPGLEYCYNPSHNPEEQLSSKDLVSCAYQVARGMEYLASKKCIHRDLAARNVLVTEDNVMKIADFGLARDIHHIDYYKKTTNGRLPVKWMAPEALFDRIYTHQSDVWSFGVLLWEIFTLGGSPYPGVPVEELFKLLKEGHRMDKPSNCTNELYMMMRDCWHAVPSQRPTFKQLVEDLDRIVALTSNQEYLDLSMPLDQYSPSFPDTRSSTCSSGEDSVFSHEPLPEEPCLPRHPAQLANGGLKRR

[17] = test system: Hepatocyte growth factor receptor (Homo sapiens), P08581 [Y1235D]; experiment: (§3) Selectivity interaction (KinomeScan (DiscoverX)) EUB0001619a MET; settings: at 1 µM
[18] = test system: Hepatocyte growth factor receptor (Homo sapiens), P08581 [M1250T]; experiment: as §3; settings: at 1 µM
Sequence of Hepatocyte growth factor receptor (Homo sapiens), P08581 [M1250T] (P08581 whole entry M1250T): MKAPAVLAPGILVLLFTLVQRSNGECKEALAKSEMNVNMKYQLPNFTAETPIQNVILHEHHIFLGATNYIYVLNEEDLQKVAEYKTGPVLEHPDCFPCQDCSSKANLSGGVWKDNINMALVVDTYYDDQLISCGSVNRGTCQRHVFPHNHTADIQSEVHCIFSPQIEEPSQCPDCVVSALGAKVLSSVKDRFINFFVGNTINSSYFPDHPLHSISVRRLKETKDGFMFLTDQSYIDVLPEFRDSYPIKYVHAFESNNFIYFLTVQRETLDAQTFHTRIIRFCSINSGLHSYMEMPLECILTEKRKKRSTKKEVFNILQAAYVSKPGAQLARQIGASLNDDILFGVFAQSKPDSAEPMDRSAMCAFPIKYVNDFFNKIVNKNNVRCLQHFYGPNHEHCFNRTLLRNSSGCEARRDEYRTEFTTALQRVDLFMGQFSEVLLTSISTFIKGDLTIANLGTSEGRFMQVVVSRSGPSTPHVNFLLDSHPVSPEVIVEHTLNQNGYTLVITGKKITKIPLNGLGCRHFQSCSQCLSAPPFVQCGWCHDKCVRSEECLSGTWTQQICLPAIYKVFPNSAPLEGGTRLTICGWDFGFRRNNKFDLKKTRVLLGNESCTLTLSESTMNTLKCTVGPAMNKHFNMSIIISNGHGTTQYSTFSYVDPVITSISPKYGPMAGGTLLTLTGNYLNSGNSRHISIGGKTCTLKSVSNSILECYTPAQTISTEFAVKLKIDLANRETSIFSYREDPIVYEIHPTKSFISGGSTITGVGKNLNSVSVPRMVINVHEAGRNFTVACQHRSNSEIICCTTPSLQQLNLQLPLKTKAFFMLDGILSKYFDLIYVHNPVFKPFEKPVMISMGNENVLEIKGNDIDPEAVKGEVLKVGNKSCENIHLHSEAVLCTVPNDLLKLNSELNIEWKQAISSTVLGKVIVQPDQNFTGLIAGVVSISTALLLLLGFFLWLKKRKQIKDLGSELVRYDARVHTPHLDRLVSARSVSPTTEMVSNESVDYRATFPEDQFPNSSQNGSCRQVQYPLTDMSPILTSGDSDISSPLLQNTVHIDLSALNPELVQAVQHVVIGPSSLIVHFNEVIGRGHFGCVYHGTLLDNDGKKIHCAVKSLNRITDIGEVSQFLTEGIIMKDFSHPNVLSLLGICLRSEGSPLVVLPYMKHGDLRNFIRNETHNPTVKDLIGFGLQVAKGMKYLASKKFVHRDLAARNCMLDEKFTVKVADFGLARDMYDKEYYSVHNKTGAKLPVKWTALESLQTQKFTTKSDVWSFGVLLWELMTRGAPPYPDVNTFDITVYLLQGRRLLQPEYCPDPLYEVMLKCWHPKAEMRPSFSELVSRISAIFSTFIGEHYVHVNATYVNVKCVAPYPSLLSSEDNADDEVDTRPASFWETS

[19] = target: Hepatocyte growth factor receptor (Homo sapiens, UniProt P08581); experiment: as §3; settings: at 1 µM

Sequence of Serine/threonine-protein kinase Chk2 (Homo sapiens) (O96017 whole entry): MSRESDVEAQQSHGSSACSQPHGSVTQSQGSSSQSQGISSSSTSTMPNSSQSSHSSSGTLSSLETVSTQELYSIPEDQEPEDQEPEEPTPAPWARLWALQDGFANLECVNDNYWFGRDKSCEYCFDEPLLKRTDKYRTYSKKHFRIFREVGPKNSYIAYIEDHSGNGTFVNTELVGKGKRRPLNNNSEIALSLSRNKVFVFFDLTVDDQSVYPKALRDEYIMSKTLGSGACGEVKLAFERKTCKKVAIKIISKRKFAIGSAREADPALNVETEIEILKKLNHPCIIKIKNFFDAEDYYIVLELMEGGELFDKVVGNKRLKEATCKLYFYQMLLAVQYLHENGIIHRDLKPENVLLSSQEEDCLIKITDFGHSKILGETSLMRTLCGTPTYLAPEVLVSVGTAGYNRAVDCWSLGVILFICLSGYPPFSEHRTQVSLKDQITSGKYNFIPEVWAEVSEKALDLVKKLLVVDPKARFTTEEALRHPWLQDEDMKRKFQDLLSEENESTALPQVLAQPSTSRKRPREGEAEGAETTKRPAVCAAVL

Cn1cc(-n2cnc3c(NCc4nc5cc(Cl)c(Cl)cc5[nH]4)nc(N4CCOCC4)nc32)cn1
% of control [1]: 12.8%

O=C(NOC[C@H](O)CO)c1ccc(F)c(F)c1Nc1ccc(I)cc1F
% of control [2]: 100%

CC[C@@H]1[C@H](F)C(=O)N[C@@H]1COc1nccc2cc(C(N)=O)c(OC)cc12 [ZIMLOVISERTIB]
% of inhibition ([3]; at 0.01 µM): 20.6% | % of inhibition ([3]; at 0.04 µM): 7.3% | % of inhibition ([3]; at 0.2 µM): 30.8% | % of inhibition ([3]; at 1 µM): 60.2% | % of inhibition ([3]; at 5 µM): 82.3% | % of inhibition [4]: 12.7%

C=CC(=O)Nc1cccc(C(=O)Nc2ccc(Nc3cc(-c4[nH]c(SC)nc4C)ccn3)cc2)c1
% of control ([5]; at 1 µM): 94% | % of control ([5]; at 5 µM): 76% | % of control ([6]; at 1 µM): 92% | % of control ([6]; at 5 µM): 83%

Cc1cc(F)c(C(=O)Nc2cccc(-c3nncn3C(C)C)n2)cc1-n1cnc(C2CC2)c1
% of control [7]: 100%

COc1cc(Nc2nc(C)cc(-c3cnn4nc(OC)ccc34)n2)cc(C(F)(F)F)c1
% of control [8]: 85%

CNCCN1CCC(c2cc(CN(C)C(=O)c3cccc(Oc4ccccc4)c3)ccn2)CC1
% activity [9]: > 90%

C=CC(=O)Nc1ccc(C(=O)Nc2[nH]nc3c2CN(C(=O)N[C@H](CN(C)C)c2ccccc2)C3(C)C)cc1
% of engagement [10]: -16.1%

CCC(=O)N1CCN(c2ccc(-n3c(=O)ccc4cnc5ccc(-c6cnc7ccccc7c6)cc5c43)cc2C(F)(F)F)CC1
% of control [11]: 89%

O[C@H]1CC[C@H](Nc2ncc3nc(Nc4c(F)cc(F)cc4F)n([C@H]4CCOC4)c3n2)CC1
% of control [12]: 84% | % of control [13]: 77% | % of control [14]: 95% | % of control [15]: 22%

N#Cc1cccc(-c2c[nH]c3ncnc(N4CCOCC4)c23)c1
% of control [16]: 100% | % of control [17]: 93% | % of control [18]: 96% | % of control [19]: 93%
